In patent US6262123A, “Ortho-substituted benzoylguanidines, process for their preparation, their use as a medicament or diagnostic, and medicament comprising them” (Aventis Pharma Deutschland GmbH, priority 1996, dated 2001) one finds IC50 data, which are given here for 4 molecules.

The term IC50 denotes the concentration that gives 50% inhibition.

Each structure is given as a SMILES string. Counter-ions that a name gives are not always drawn.

The target of this test is T1, rabbit erythrocyte Na^+ /H^+ exchanger (Oryctolagus cuniculus, UniProt P23791).
T1 construct: determine the Na^+ influx into the erythrocytes by way of Na^+ /H^+ exchange; endogenous in cells; host or cells: erythrocytes in whole blood of cholesterol-fed New Zealand White rabbits
The test can be described thus: Inhibition of the rabbit erythrocyte Na^+ /H^+ exchanger (amiloride-sensitive Na^+ influx, flame photometry). The settings on record: erythrocytes of cholesterol-fed rabbits; pH 7.4, 37° C., hyperosmolar salt/sucrose medium. It counts as cell-based, New Zealand White rabbits. The source says:
Inhibition of the rabbit erythrocyte Na^+ /H^+ exchanger New Zealand White rabbits (Ivanovas) were given a standard diet containing 2% cholesterol for six weeks in order to activate the Na^+ /H^+ exchange and thereby render it possible to use flame photometry to determine the Na^+ influx into the erythrocytes by way of Na^+ /H^+ exchange. The blood was withdrawn from the aural arteries and rendered incoagulable by adding 25 IU of potassium heparin. One part of each sample was used for determining the hematocrit in duplicate by means of centrifugation. Aliquots of in each case 100 μl were used for measuring the initial Na^+ content of the erythrocytes.
In order to determine the amiloride-sensitive sodium influx, 100 μl of each blood sample were in each case incubated, at pH 7.4 and 37° C., in 5 ml of a hyperosmolar salt/sucrose medium (mmol/l: 140 NaCl, 3 KCl, 150 sucrose, 0.1 ouabain, 20 tris(hydroxymethyl)aminomethane). After that, the erythrocytes were washed three times with an ice-cold solution of MgCl2 /ouabain (mmol/l: 112 MgCl2, 0.1 ouabain) and hemolyzed in 2.0 ml of distilled water. The intracellular sodium content was determined by flame photometry.
The net influx of Na^+ was calculated from the difference between the initial sodium values and the sodium content of the erythrocytes after incubation. The amiloride-inhibitable sodium influx was obtained from the difference in the sodium content of the erythrocytes after incubating with and without 3×10^-4 mol/l amiloride. The same procedure was adopted in the case of the novel compounds.

T1 sequence (P23791 whole entry): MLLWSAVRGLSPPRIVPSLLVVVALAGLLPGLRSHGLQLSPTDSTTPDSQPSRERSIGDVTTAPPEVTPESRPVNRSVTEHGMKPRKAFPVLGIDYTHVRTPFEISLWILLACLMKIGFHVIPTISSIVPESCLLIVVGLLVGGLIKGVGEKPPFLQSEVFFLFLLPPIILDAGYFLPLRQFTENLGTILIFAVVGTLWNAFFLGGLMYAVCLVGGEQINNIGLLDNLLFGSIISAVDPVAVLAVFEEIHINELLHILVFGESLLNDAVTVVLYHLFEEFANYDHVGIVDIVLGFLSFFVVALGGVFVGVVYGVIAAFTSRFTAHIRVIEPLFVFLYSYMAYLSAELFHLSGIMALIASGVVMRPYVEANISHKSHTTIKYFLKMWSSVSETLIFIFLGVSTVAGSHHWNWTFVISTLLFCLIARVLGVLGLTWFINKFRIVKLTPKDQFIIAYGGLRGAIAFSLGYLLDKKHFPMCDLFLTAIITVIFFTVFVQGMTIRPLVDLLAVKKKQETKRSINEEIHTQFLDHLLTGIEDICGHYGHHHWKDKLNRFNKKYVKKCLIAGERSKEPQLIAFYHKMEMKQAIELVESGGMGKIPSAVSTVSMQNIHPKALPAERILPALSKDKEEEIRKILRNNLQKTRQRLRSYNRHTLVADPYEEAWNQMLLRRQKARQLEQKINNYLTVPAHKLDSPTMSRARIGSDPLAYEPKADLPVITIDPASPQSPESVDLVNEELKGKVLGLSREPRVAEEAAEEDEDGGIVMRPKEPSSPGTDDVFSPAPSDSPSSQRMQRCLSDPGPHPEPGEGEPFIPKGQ

For the molecule `NC(N)=NC(=O)c1ccc(O)cc1Cl` [Example 1, 2-Chloro4-hydroxybenzoylguanidine hydrochloride], the IC50 amounted to 4000 nM.

On to `NC(N)=NC(=O)c1cc(C(F)(F)F)c(O)cc1Cl` [Example 4, 2-Chloro4-hydroxy-5-trifluoromethylbenzoylguanidine hydrochloride], for which the IC50 stood at 140 nM.

For `NC(N)=NC(=O)c1cc(I)c(O)cc1Cl` [Example 2, 2-Chloro-4-hydroxy-5-iodobenzoylguanidine hydrochloride], the IC50 worked out at 240 nM.

On to `NC(N)=NC(=O)c1cc(I)c(O)c(I)c1Cl` [Example 3, 2-Chloro4-hydroxy-3,5-diiodobenzoylguanidine hydrochloride], for which the IC50 worked out at 100 nM.
